Measured values reported in the kinase profiling compilation of Christmann-Franck et al. (2016).

Experiments:
Assay in all cases: KINOMEscan competition binding
Conditions in all cases: compound 10.0 µM
[1] = target: FGFR1 (human) (UniProt P11362)
[2] = target: RIPK1 (human) (UniProt Q13546)
[3] = target: IRAK3 (human) (UniProt Q9Y616)
[4] = target: BTK (human) (UniProt Q06187)
[5] = target: MAP3K5 (human) (UniProt Q99683)
[6] = target: RPS6KA3 KD1 (human) (UniProt P51812)
[7] = target: FYN (human) (UniProt P06241)
Chain of FYN (human) (P06241 whole entry, looked up): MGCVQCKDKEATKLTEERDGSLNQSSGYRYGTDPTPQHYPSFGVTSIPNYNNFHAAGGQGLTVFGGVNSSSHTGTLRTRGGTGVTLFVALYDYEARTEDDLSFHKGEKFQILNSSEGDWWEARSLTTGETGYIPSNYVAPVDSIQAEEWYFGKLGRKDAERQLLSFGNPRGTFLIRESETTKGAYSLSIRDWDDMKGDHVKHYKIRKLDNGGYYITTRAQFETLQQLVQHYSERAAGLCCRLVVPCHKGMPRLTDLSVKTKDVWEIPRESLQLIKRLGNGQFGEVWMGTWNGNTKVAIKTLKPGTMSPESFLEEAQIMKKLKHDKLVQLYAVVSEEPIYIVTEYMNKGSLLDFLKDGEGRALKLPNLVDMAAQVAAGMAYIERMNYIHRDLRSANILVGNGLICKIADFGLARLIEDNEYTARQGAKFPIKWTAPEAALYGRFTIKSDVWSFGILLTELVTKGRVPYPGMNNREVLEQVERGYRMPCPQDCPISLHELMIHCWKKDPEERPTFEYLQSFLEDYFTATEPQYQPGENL

[8] = target: GSK3A (human) (UniProt P49840)
[9] = target: PRKAA2 (human) (UniProt P54646)
Chain of PRKAA2 (human) (P54646 whole entry, looked up): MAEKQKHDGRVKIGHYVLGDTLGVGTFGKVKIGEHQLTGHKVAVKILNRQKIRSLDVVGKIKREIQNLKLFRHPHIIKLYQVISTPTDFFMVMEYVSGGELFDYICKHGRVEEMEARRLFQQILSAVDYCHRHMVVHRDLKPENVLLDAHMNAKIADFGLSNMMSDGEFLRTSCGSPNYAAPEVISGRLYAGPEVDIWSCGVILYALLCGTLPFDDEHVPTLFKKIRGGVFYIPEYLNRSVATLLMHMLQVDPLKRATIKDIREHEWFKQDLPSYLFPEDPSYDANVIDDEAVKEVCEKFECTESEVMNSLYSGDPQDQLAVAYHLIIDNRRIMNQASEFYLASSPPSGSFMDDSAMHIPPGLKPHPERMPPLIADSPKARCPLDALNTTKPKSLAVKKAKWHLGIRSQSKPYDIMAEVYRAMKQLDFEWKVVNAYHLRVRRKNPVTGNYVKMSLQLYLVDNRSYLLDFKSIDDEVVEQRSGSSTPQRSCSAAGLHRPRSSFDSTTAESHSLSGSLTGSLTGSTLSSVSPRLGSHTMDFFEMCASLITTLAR

[10] = target: CDK9 (human) (UniProt P50750)
[11] = target: MST4 (human) (UniProt Q9P289)
[12] = target: MAP3K3 (human) (UniProt Q99759)
[13] = target: PIK3CD (human) (UniProt O00329)
[14] = target: MAPK9 (human) (UniProt P45984)
Chain of MAPK9 (human) (P45984 whole entry, looked up): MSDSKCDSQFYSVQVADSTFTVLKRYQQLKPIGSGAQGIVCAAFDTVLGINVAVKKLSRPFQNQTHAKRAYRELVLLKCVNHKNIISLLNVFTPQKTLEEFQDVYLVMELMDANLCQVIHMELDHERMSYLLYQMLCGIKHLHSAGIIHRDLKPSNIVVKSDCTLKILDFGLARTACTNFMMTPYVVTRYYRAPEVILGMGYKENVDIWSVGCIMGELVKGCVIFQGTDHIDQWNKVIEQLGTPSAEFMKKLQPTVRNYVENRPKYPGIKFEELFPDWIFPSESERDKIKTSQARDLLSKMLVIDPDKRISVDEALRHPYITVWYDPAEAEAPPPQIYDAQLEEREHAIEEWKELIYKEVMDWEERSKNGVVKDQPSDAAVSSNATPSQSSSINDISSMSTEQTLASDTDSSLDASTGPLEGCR

[15] = target: PRKACB (human) (UniProt P22694)
[16] = target: PIP4K2B (human) (UniProt P78356)
[17] = target: CAMK2G (human) (UniProt Q13555)
[18] = target: IKBKE (human) (UniProt Q14164)
[19] = target: MAP2K4 (human) (UniProt P45985)
Chain of MAP2K4 (human) (P45985 whole entry, looked up): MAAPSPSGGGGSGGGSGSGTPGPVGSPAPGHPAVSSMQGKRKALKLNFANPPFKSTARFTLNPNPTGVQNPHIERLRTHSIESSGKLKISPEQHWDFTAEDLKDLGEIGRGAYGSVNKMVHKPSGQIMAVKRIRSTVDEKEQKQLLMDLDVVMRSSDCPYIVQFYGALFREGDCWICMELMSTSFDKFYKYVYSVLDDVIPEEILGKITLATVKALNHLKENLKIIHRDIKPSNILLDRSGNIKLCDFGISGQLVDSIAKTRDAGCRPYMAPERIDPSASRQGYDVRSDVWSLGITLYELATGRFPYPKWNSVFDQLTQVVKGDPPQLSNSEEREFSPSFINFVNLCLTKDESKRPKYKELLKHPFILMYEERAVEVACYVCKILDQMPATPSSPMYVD

[20] = target: RPS6KA1 KD2 (human) (UniProt Q15418)
[21] = target: ITK (human) (UniProt Q08881)
[22] = target: PIP5K1A (human) (UniProt Q99755)
[23] = target: MAPK4 (human) (UniProt P31152)
[24] = target: MST1R (human) (UniProt Q04912)
[25] = target: PAK2 (human) (UniProt Q13177)
Chain of PAK2 (human) (Q13177 whole entry, looked up): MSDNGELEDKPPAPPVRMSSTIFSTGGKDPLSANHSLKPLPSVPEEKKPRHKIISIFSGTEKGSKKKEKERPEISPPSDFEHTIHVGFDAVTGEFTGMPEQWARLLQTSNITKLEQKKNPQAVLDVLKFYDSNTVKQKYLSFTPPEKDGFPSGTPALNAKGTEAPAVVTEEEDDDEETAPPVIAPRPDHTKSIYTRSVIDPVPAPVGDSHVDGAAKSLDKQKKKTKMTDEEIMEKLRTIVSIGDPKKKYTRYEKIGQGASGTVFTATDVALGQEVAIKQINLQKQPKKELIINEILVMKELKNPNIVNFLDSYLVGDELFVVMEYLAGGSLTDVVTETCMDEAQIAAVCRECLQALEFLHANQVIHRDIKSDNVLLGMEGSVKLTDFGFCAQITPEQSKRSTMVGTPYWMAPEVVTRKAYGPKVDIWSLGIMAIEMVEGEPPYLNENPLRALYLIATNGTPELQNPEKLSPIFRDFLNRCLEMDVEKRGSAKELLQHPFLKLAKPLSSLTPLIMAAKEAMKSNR

[26] = target: CAMK4 (human) (UniProt Q16566)
[27] = target: CSF1R (human) (UniProt P07333)
[28] = target: CDK19 (human) (UniProt Q9BWU1)
[29] = target: ACVR2B (human) (UniProt Q13705)
[30] = target: PRKG2 (human) (UniProt Q13237)
[31] = target: MELK (human) (UniProt Q14680)
[32] = test system: KIT (human), P10721 [V559D/V654A]
Chain of KIT (human), P10721 [V559D/V654A] (P10721 whole entry V559D/V654A, looked up): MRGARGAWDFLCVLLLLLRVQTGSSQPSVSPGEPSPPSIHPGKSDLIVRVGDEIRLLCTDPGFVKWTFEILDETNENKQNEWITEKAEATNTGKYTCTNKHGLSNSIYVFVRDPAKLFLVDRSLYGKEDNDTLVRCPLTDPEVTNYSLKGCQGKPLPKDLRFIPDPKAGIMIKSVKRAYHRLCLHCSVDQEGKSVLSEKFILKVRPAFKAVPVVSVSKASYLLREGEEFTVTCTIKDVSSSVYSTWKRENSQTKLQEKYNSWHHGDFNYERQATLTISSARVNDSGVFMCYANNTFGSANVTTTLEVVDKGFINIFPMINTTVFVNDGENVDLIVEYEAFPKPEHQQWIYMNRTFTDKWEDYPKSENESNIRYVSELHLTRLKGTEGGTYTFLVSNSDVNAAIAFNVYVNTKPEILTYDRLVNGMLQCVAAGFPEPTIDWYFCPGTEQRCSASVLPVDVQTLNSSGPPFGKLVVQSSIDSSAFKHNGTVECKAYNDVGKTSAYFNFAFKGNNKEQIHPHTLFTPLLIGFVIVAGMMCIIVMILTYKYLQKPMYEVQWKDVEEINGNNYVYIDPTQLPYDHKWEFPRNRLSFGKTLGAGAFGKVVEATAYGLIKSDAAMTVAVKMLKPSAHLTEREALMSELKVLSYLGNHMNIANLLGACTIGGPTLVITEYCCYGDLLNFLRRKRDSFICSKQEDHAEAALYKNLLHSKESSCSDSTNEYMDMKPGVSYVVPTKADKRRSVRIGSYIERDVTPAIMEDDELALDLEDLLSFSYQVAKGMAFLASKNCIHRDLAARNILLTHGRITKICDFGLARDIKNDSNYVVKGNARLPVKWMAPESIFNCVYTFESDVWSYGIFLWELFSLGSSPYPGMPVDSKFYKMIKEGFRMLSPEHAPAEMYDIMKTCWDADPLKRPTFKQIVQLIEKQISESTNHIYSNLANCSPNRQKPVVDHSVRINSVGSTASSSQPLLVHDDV

[33] = target: CSNK1A1L (human) (UniProt Q8N752)
[34] = target: EPHA3 (human) (UniProt P29320)
Chain of EPHA3 (human) (P29320 whole entry, looked up): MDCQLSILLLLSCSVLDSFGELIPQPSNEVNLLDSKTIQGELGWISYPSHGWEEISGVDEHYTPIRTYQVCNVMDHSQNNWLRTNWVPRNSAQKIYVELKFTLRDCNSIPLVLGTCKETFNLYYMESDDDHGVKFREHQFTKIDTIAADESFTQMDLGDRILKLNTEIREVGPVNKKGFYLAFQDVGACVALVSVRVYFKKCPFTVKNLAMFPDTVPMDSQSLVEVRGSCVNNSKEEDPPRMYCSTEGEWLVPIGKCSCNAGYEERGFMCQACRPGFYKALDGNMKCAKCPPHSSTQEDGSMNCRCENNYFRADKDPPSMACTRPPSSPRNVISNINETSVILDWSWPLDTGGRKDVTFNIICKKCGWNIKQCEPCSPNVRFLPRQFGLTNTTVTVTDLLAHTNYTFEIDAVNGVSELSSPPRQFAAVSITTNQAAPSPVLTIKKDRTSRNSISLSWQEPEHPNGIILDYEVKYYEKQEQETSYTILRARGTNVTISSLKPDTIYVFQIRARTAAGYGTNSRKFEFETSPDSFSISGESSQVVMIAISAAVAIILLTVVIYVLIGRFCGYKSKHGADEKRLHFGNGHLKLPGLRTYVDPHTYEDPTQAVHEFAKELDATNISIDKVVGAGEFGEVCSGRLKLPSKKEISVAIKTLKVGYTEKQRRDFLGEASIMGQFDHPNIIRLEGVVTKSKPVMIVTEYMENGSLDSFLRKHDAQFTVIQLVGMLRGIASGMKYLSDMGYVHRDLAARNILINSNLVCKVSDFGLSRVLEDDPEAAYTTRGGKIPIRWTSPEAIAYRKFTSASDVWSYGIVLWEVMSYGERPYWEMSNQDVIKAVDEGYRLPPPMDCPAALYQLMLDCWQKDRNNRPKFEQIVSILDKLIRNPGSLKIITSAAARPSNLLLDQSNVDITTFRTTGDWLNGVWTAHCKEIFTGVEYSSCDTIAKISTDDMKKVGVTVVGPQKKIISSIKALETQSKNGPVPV

Chain of IRAK3 (human) (Q9Y616 whole entry, looked up): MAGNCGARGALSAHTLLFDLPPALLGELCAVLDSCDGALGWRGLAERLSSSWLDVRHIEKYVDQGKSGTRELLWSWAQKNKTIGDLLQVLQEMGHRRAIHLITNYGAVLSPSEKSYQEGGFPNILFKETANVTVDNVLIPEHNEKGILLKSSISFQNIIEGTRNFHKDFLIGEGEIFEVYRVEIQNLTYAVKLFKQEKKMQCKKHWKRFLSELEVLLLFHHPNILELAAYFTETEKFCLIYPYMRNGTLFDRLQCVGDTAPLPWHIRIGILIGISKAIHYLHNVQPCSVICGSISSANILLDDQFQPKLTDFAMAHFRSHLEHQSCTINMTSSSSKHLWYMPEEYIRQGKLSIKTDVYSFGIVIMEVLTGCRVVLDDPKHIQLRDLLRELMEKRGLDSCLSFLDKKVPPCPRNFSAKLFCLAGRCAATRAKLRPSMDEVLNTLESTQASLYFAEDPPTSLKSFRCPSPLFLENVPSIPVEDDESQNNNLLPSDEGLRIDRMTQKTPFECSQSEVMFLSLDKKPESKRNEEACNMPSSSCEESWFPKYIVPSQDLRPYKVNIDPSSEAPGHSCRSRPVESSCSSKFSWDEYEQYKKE

kinase still bound, per cent of control [1] [%] | kinase still bound, per cent of control [2] [%] | kinase still bound, per cent of control [3] [%] | kinase still bound, per cent of control [4] [%] | kinase still bound, per cent of control [5] [%] | kinase still bound, per cent of control [7] [%] | kinase still bound, per cent of control [8] [%] | kinase still bound, per cent of control [9] [%] | kinase still bound, per cent of control [10] [%] | kinase still bound, per cent of control [11] [%] | kinase still bound, per cent of control [14] [%] | kinase still bound, per cent of control [15] [%] | kinase still bound, per cent of control [16] [%] | kinase still bound, per cent of control [17] [%] | kinase still bound, per cent of control [18] [%] | kinase still bound, per cent of control [19] [%] | kinase still bound, per cent of control [20] [%] | kinase still bound, per cent of control [21] [%] | kinase still bound, per cent of control [22] [%] | kinase still bound, per cent of control [23] [%] | Compound | further results
11 | 100 | 15 | 0.65 | 100 | 8.1 | 18 | 8.9 | 100 | 19 | 100 | 13 | 3.8 | 100 | 100 | 100 | 100 | 0.15 | 4.6 | 100 | CNC(=O)c1ccc(Nc2cc(Nc3ccccc3S(=O)(=O)C(C)C)c3cc[nH]c3n2)nc1 | kinase still bound, per cent of control [6]: 25%; kinase still bound, per cent of control [12]: 4.8%; kinase still bound, per cent of control [13]: 100%; kinase still bound, per cent of control [24]: 100%; kinase still bound, per cent of control [25]: 100%; kinase still bound, per cent of control [26]: 100%; kinase still bound, per cent of control [27]: 30%; kinase still bound, per cent of control [28]: 100%; kinase still bound, per cent of control [29]: 100%; kinase still bound, per cent of control [30]: 25%; kinase still bound, per cent of control [31]: 100%; kinase still bound, per cent of control [32]: 100%; kinase still bound, per cent of control [33]: 26%; kinase still bound, per cent of control [34]: 100%
2.2 | 100 | 100 | 1.2 | 100 | 5.6 | 100 | 100 | 100 | 100 | 100 | 100 | 100 | 100 | 100 | 100 | 100 | 16 | 100 | 100 | C=CC(=O)Nc1ccc(CN(C(=O)Nc2c(Cl)c(OC)cc(OC)c2Cl)c2cc(Nc3ccc(N4CCN(C)CC4)cc3)ncn2)cc1 | kinase still bound, per cent of control [6]: 100%; kinase still bound, per cent of control [12]: 5.8%; kinase still bound, per cent of control [13]: 100%; kinase still bound, per cent of control [24]: 100%; kinase still bound, per cent of control [25]: 100%; kinase still bound, per cent of control [26]: 100%; kinase still bound, per cent of control [27]: 0%; kinase still bound, per cent of control [28]: 100%; kinase still bound, per cent of control [29]: 100%; kinase still bound, per cent of control [30]: 100%; kinase still bound, per cent of control [31]: 100%; kinase still bound, per cent of control [32]: 100%; kinase still bound, per cent of control [33]: 100%; kinase still bound, per cent of control [34]: 100%
0.4 | 100 | 100 | 100 | 100 | 100 | 100 | 100 | 100 | 100 | 100 | 100 | 100 | 100 | 100 | 100 | 100 | 100 | 100 | 100 | CCN(CC)CCCCNc1ncc2cc(-c3cc(OC)cc(OC)c3)c(NC(=O)NC(C)(C)C)nc2n1 | kinase still bound, per cent of control [6]: 100%; kinase still bound, per cent of control [25]: 100%; kinase still bound, per cent of control [26]: 100%; kinase still bound, per cent of control [27]: 6.6%; kinase still bound, per cent of control [28]: 100%; kinase still bound, per cent of control [29]: 100%; kinase still bound, per cent of control [30]: 100%; kinase still bound, per cent of control [31]: 100%; kinase still bound, per cent of control [32]: 100%; kinase still bound, per cent of control [33]: 100%; kinase still bound, per cent of control [34]: 100%

Compound | kinase still bound, per cent of control [1] [%] | kinase still bound, per cent of control [2] [%] | kinase still bound, per cent of control [3] [%] | kinase still bound, per cent of control [4] [%] | kinase still bound, per cent of control [5] [%] | kinase still bound, per cent of control [7] [%] | kinase still bound, per cent of control [8] [%] | kinase still bound, per cent of control [9] [%] | kinase still bound, per cent of control [10] [%] | kinase still bound, per cent of control [11] [%] | kinase still bound, per cent of control [14] [%] | kinase still bound, per cent of control [15] [%] | kinase still bound, per cent of control [16] [%] | kinase still bound, per cent of control [17] [%] | kinase still bound, per cent of control [18] [%] | kinase still bound, per cent of control [19] [%] | kinase still bound, per cent of control [20] [%] | kinase still bound, per cent of control [21] [%] | kinase still bound, per cent of control [22] [%] | kinase still bound, per cent of control [23] [%] | further results
Cc1n[nH]c2ccc(-c3cncc(OC[C@@H](N)Cc4c[nH]c5ccccc45)c3)cc12 | 100 | 100 | 30 | 100 | 100 | 100 | 1 | 100 | 1.9 | 30 | 100 | 0.45 | 5.4 | 5.4 | 24 | 100 | 100 | 100 | 9.4 | 100 | kinase still bound, per cent of control [12]: 29%; kinase still bound, per cent of control [13]: 100%; kinase still bound, per cent of control [24]: 100%; kinase still bound, per cent of control [25]: 4.6%; kinase still bound, per cent of control [26]: 12%; kinase still bound, per cent of control [27]: 100%; kinase still bound, per cent of control [28]: 0.5%; kinase still bound, per cent of control [29]: 100%; kinase still bound, per cent of control [30]: 5.7%; kinase still bound, per cent of control [31]: 12%; kinase still bound, per cent of control [32]: 100%; kinase still bound, per cent of control [33]: 11%; kinase still bound, per cent of control [34]: 100%
